According to patent US20170081357A1, “[…] ACTIVE 17-NITROGEN SUBSTITUTED ESTRATREINTHIAZOLE DERIVATIVES AS INHIBITORS OF 17.BETA-HYDROXYSTEROID DEHYDROGENASE” (FORENDO PHARMA LTD, priority 2013, published 2017):

Assays:
[1] = target: T1, recombinant human 17β-HSD2 (Homo sapiens, UniProt P37059); assay: Inhibition of recombinant human 17β-HSD2 (conversion of 3H-estradiol to estrone, HPLC); assay type: biochemical; conditions: inhibitor 1 μM; 50 nM estradiol, 1 mM NADH, 30 min at RT
T1 construct: made in house; host or cells: Sd9 (Sf9) insect cells, baculovirus (Bac to Bac Expression System); fractionated cell extract
T1 sequence (P37059 1-387): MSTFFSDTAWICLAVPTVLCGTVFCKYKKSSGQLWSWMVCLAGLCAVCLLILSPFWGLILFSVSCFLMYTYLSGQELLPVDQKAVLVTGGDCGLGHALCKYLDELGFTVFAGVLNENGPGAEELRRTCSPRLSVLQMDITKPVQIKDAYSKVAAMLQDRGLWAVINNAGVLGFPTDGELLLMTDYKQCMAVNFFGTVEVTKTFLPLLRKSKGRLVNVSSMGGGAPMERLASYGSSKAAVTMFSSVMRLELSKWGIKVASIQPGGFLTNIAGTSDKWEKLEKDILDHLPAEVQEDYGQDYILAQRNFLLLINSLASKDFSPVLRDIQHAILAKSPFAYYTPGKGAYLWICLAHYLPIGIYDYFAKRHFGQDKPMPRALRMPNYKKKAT
Experimental: 17β-HSD2 production and isolation: Similarly to 17β-HSD1 the Recombinant baculovirus was generated by the “Bac to Bac Expression System” (Invitrogen). Recombinant bacmid was transfected to Sd9 insect cells using “Cellfectin Reagent” (Invitrogen). 60 h later cells were harvested and supernatant were fractionated by the following protocol: • cells were dissolved into 40 ml of A-buffer (40 mM TRIS, pH8.0, 20% glycerol, 20 μM NAD, 0.4 mM PMSF, 150 mM NaCl, 0.5% dodecyl-β-maltoside+protease inhibitor cocktail) • cells were sonicated • lysate was incubated on ice for 15 min • lysate was centrifuged 5000 rpm 15 min, +4° C. • centrifugation of the supernatant 180 000 g 30 min, +4° C. • pellet was dissolved into 8 ml of A-buffer • not resuspended material was removed by centrifugation 5000 rpm 15 min, +4° C. • the clear supernatant was divided into 100 μl aliquots and were stored frozen until determination of enzymatic activity.
The amount of 17β-HSD2 was analysed by immunoblotting and total protein concentration of each extract batch was determined.
Assay—Inhibition of recombinant human 17β-HSD2: Recombinant protein (4 μg/ml) was incubated in 20 mM KH2PO4 pH 8.5 with 50 nM estradiol (including 800 000 cpm/ml of ^3H-estradiol) and 1 mM NADH for 30 min at RT, in the presence of the potential inhibitor at concentrations 1 μM or 0.1 μM. Inhibitor stock solutions were prepared in DMSO. Final concentration of DMSO was adjusted to 1% in all samples. The enzyme reaction was stopped by addition of 10% trichloroacetic acid (final concentration). Samples were centrifuged in a microtiter plate at 4000 rpm for 10 min. Supernatants were applied to reverse phase HPLC on a Waters Symmetry C18 column, equipped with a Waters Sentry Guard column. Isocratic HPLC runs were performed at RT at a flow rate of 1 ml/min in acetonitrile:water 48:52 as running solvent. Radioactivity was monitored in the eluate by a Packard Flow Scintillation Analyzer. Total radioactivity for estrone and estradiol were determined in each sample and percent conversion of estradiol to estrone was calculated according to the following formula:
(§1) Percent inhibition was calculated flowingly: % inhibition=100−% conversion

[2] = target: T2, recombinant human 17β-HSD1 (Homo sapiens, UniProt P14061); assay: Inhibition of recombinant human 17β-HSD1 (conversion of 3H-estrone to estradiol, HPLC); assay type: biochemical; conditions: inhibitor 1 μM; 30 nM estrone, 1 mM NADPH, 30 min at RT; read-out: 17β-HDS1 Inhibition % at 1 μM
T2 construct: made in house; host or cells: Sd9 (Sf9) insect cells, baculovirus (Bac to Bac Expression System); microsomal fraction
T2 sequence (P14061 1-328): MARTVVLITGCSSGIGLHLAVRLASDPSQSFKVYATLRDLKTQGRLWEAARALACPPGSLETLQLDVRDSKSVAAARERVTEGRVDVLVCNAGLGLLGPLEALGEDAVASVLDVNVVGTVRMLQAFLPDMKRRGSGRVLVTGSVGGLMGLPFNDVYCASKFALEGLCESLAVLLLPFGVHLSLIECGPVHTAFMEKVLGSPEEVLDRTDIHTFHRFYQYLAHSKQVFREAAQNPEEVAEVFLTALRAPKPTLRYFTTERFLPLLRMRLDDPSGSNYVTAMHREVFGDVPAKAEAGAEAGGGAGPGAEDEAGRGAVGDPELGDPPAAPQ
Experimental: 17β-HSD1 production and isolation: Recombinant baculovirus was generated by the “Bac to Bac Expression System” (Invitrogen). Recombinant bacmid was transfected to Sd9 insect cells using “Cellfectin Reagent” (Invitrogen). 60 h later cells were harvested; the microsomal fraction was isolated as described by Puranen, T. J., Poutanen, M. H., Peltoketo, H. E., Vihko, P. T. and Vihko, R. K. (1994) Site-directed mutagenesis of the putative active site of human 17 β-hydroxysteroid dehydrogenase type 1. Biochem. J. 304: 289-293. Aliquots were stored frozen until determination of enzymatic activity.
Assay—Inhibition of recombinant human 17β-HSD1: Recombinant protein (1 μg/ml) was incubated in 20 mM KH2PO4 pH 7.4 with 30 nM estrone (including 800 000 cpm/ml of ^3H-estrone) and 1 mM NADPH for 30 min at RT, in the presence of the potential inhibitor at concentrations 1 μM or 0.1 μM. Inhibitor stock solutions were prepared in DMSO. Final concentration of DMSO was adjusted to 1% in all samples. The enzyme reaction was stopped by addition of 10% trichloroacetic acid (final concentration). Samples were centrifuged in a microtiter plate at 4000 rpm for 10 min. Supernatants were applied to reverse phase HPLC on a Waters Symmetry C18 column, equipped with a Waters Sentry Guard column. Isocratic HPLC runs were performed at RT at a flow rate of 1 ml/min in acetonitrile:water 48:52 as running solvent. Radioactivity was monitored in the eluate by a Packard Flow Scintillation Analyzer. Total radioactivity for estrone and estradiol were determined in each sample and percent conversion of estrone to estradiol was calculated according to the following formula:
as §1

Structure (SMILES) | inhibition at 1 µM [1] [%] | inhibition at 1 µM [2] [%]
Cc1cnc(NC(=O)CC[C@@H]2c3c[nH]nc3[C@@]3(C)CCC4c5ccccc5CCC4C23)s1 (stereo partly drawn) [Compound 52, 3-((6aS,10S)-6a-methyl-4b,5,6,6a,8,10,10a,10b,11,12-decehydro-7,8-diaza-pentaleno[2,1-1]phenanthren-10-yl}-N-(5-methylthiazol-2-yl)propanamide] | 0 | 94
Cc1cnc(NC(=O)CC[C@@H]2c3c[nH]nc3[C@@]3(C)CCC4c5cc(Br)c(O)c(Br)c5CCC4C23)s1 (stereo partly drawn) [Compound 54, 3-((6aS,10S)-1,3-dibromo-2-hydroxy-6a-methyl-4b,5,6,6a,8,10,10a,10b,11,12-decehydro-7,8-diaza-pentaleno[2,1-1]phenanthren-10-yl}-N-(5-methylthiazol-2-yl)propanamide] | 13 | 90
Cc1cnc(NC(=O)CC[C@@H]2c3c[nH]nc3[C@@]3(C)CCC4c5ccc(O)c([N+](=O)[O-])c5CCC4C23)s1 (stereo partly drawn) [Compound 56, 3-((6aS,10S)-2-Hydroxy-6a-methyl-4-nitro-4b,5,6,6a,8,10,10a,10b,11,12-decehydro-7,8-diaza-pentaleno[2,1-1]phenanthren-10-yl}-N-(5-methylthiazol-2-yl)propanamide] | 39 | 97
Cc1cnc(NC(=O)CC[C@@H]2C(=C\O)/C(=N\O)[C@@]3(C)CCC4c5ccc(O)cc5CCC4C23)s1 (stereo partly drawn) [Compound 69, 3-{(13S,15S)-3-Hydroxy-17-[(Z)-hydroxyimino]-16-[1-hydroxy-meth-(E)-ylidene]-13-methyl-7,8,9,11,12,13,14,15,16,17-decahydro-6H-cyclopenta[a]phenanthren-15-yl}-N-(5-methylthiazol-2-yl)propanamide] | 2 | 98
Cc1cnc(NC(=O)CC[C@@H]2C(=C\O)/C(=N\O)[C@@]3(C)CCC4c5ccc(O)c(Br)c5CCC4C23)s1 (stereo partly drawn) [Compound 71, 3-{(13S,15S)-4-Bromo-3-hydroxy-17-[(Z)-hydroxyimino]-16-[1-hydroxy-meth-(E)-ylidene]-13-methyl-7,8,9,11,12,13,14,15,16,17-decahydro-6H-cyclopenta[a]phenanthren-15-yl}-N-(5-methylthiazol-2-yl)propanamide] | 7 | 82
COc1cc2c(cc1/C(C)=N/O)C1CC[C@]3(C)/C(=N/O)C[C@@H](CCC(=O)Nc4ncc(C)s4)C3C1CC2 (stereo partly shown) [Compound 72] | 3 | 77
CO/N=C1\C[C@@H](CCC(=O)Nc2ncc(C)s2)C2C3CCc4cc(OC)ccc4C3CC[C@]12C (stereo partly drawn) [Compound 74, 3-{(13S,15R)-3-Methoxy-17-[(E)-methoxyimino]-13-methyl-7,8,9,11,12,13,14,15,16,17-decahydro-6H-cyclopenta[a]phenanthren-15-yl}-N-(5-methylthiazol-2-yl)propanamide] | 2 | 59
CO/N=C1\C[C@@H](CCC(=O)Nc2ncc(C)s2)C2C3CCc4cc(OC)c(I)cc4C3CC[C@]12C (stereo partly drawn) [Compound 84, 3-{(13S,15R)-2-iodo-3-methoxy-17-[(E)-methoxyimino]-13-methyl-7,8,9,11,12,13,14,15,16,17-decahydro-6H-cyclopenta[a]phenanthren-15-yl}-N-(5-methylthiazol-2-yl)propanamide] | 1 | 62
CO/N=C1\C[C@@H](CCC(=O)Nc2ncc(C)s2)C2C3CCc4cc(O)c(CN5CCOCC5)cc4C3CC[C@]12C (stereo partly drawn) [Compound 98, 3-{(13S,15R)-3-Hydroxy-17-[(E)-methoxyimino]-13-methyl-2-morpholin-4-ylmethyl-7,8,9,11,12,13,14,15,16,17-decahydro-6H-cyclopenta[a]phenanthren-15-yl}-N-(5-methylthiazol-2-yl)propanamide] | 0 | 57
CO/N=C1\C[C@@H](CCC(=O)Nc2ncc(C)s2)C2C3CCc4cc(OC(C)=O)ccc4C3CC[C@]12C (stereo partly drawn) [Compound 100, Acetic acid (13S,15R)-17[(E)-methoxyimino]-13-methyl-15-[2-(5-methylthiazol-2-ylcarbamoyl)-ethyl]-7,8,9,11,12,13,14,15,16,17-decahydro-6H-cyclopenta[a]phenanthren-3-yl ester] | 1 | 84
CO/N=C1\C[C@@H](CCC(=O)Nc2ncc(C)s2)C2C3CCc4cc(OC(=O)CN(C)C)ccc4C3CC[C@]12C (stereo partly drawn) [Compound 101, Dimethylamino-acetic acid (13S,15R)-17[(E)-methoxyimino]-13-methyl-15-[2-(5-methylthiazol-2-ylcarbamoyl)-ethyl]-7,8,9,11,12,13,14,15,16,17-decahydro-6H-cyclopenta[a]phenanthren-3-yl ester] | 3 | 88
CCO/N=C1\C[C@@H](CCC(=O)Nc2ncc(C)s2)C2C3CCc4cc(O)ccc4C3CC[C@]12C (stereo partly drawn) [Compound 105, 3-{(13S,15R)-17-[(E)-Ethoxyimino]-3-hydroxy-13-methyl-7,8,9,11,12,13,14,15,16,17-decahydro-6H-cyclopenta[a]phenanthren-15-yl}-N-(5-methylthiazol-2-yl)propanamide] | 3 | 94
C=CCO/N=C1\C[C@@H](CCC(=O)Nc2ncc(C)s2)C2C3CCc4cc(O)ccc4C3CC[C@]12C (stereo partly drawn) [Compound 107, 3-{(13S,15R)-17-[(E)-Allyloxyimino]-3-hydroxyl-13-methyl-7,8,9,11,12,13,14,15,16,17-decahydro-6H-cyclopenta[a]phenanthren-15-yl}-N-(5-methylthiazol-2-yl)propanamide] | 3 | 70
C=CCO/N=C1\C[C@@H](CCC(=O)Nc2ncc(C)s2)C2C3CCc4cc(O)c([N+](=O)[O-])cc4C3CC[C@]12C (stereo partly drawn) [Compound 108, 3-{(13S,15R)-17-[(E)-Allyloxyimino]-3-hydroxyl-13-methyl-2-nitro-7,8,9,11,12,13,14,15,16,17-decahydro-6H-cyclopenta[a]phenanthren-15-yl}-N-(5-methylthiazol-2-yl)propanamide] | 1 | 80
